Measured values taken from patent US8802149B2, “Systems and processes for spray drying hydrophobic and hydrophilic components” (Novartis Pharma AG, priority 1996, dated 2014).

Test: Solubility of drug and excipient in common organic solvent or cosolvent system
Assay type: physicochemical
Settings: for solubility in Acetone (50%)/Water (50%) (by volume): solvent Acetone (50%)/Water (50%) by volume
Text: According to the third aspect of the present invention. an organic solvent or cosolvent is selected in which both the hydrophobic drug or other component and the hydrophilic excipient or other component may be dissolved. […] The solvent must further be selected to leave minimum residual solvent in the spray dried process and/or be capable of being adequately removed from the spray dried product. The particular organic solvent or cosolvent selected will depend on the nature of the hydrophobic drug and the hydrophilic excipient.
Each of these formulations has been spray dried and tested as described in further detail in the Experimental section hereinafter.

solubility in Acetone (50%)/Water (50%) (by volume)	solubility in DMSO (33%)/Acetone (67%) (by volume) (solvent DMSO (33%)/Acetone (67%) by volume)	solubility in Ethanol (solvent Ethanol)	solubility in Methanol (solvent Methanol)	Structure (SMILES)
(adequate solubility)	(good solubility)	(adequate solubility)	(good solubility)	CCCC1O[C@@H]2C[C@H]3[C@@H]4CCC5=CC(=O)C=C[C@]5(C)[C@H]4[C@@H](O)C[C@]3(C)[C@]2(C(=O)CO)O1 (some centres unmarked) [Budesonide]
(adequate solubility)				OC[C@@H](O)[C@@H](O)[C@H](O)[C@H](O)CO [Mannitol]
